For 60 molecules, IC50 results are on record in BindingDB's records for doi:10.1007/s10822-022-00478-x (Roche Innovation Center Basel, F. Hoffmann-La Roche Ltd., 2022).

Molecules are shown by their SMILES.

For this assay, the target named is cAMP and cAMP-inhibited cGMP 3',5'-cyclic phosphodiesterase 10A (Homo sapiens, UniProt Q9Y233). Put plainly: PDE10A assay. The gist of the method:
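Human PDE10A (2 ng/well) preincubated 15 min RT with compound in HEPES pH 7.5, 10 mM MgCl2, BSA, then reacted 15 min with 50 nM [3H]cGMP/cGMP substrate. Stopped with Y-Si SPA beads; bound radioactivity counted, IC50 from four-parameter logistic, pIC50 = −log10(IC50).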

For `CN(C(=O)c1cnn(C)c1C(=O)N[C@@H]1CCn2cc(-c3ccccc3)nc2C1)C1COC1` [Roche-Dataset for PDE10A, Compound 248], it took 44 nM to reach half-maximal inhibition (IC50).

`CNC(=O)c1nn(C)cc1NC(=O)c1nc(C2CC2)ccc1N(C)c1cncnc1` [Roche-Dataset for PDE10A, Compound 1122]: inhibition was half-maximal at 10000 nM (IC50).

For `Cc1nc(CCc2nc(-c3ccccc3)cn2C)nc2ccccc12` [Roche-Dataset for PDE10A, Compound 129], the IC50 (as a rule, the concentration needed to halve the response being measured) was 5.25 nM.

In turn, `CCOC(=O)Cc1csc(NC(=O)c2nc(C3CC3)cnc2Nc2cncnc2)n1` [Roche-Dataset for PDE10A, Compound 914] showed an IC50 of 4.99 nM.

`Cn1nc(-c2ccccn2)cc1NC(=O)c1c(Nc2cncnc2)cc[nH]c1=O` [Roche-Dataset for PDE10A, Compound 711] showed an IC50 of 18 nM.

The molecule `CC(=O)Nc1cccc(NC(=O)c2nc(C3CC3)cnc2Nc2cncnc2)c1` [Roche-Dataset for PDE10A, Compound 571] had an IC50 of 35 nM.

On to `O=C(NCCO)c1ncccc1NC(=O)c1nc(C2CC2)cnc1Nc1cncnc1` [US8703768, 271], for which the IC50 came out at 0.36 nM.

In the case of `Cn1ncc(C(=O)NCCOCCO)c1C(=O)Nc1ccn2nc(-c3ccccc3)nc2c1` [Roche-Dataset for PDE10A, Compound 84], half-maximal inhibition (IC50) required 14 nM.

As to `Cc1nc2ccc(Cl)cc2nc1OCc1nc(-c2ccccc2)cn1C` [Roche-Dataset for PDE10A, Compound 769], the IC50 came to 6.38 nM.

In turn, `Cc1ncc(NC(=O)c2nc(C3CC3)cnc2Nc2cncnc2)c(C(=O)NCC(C)(C)O)n1` [US8703768, 281] registered an IC50 of 0.64 nM.

In the case of `CCN(C)C(=O)c1c(NC(=O)c2nc(C3CC3)cnc2Nc2cncnc2)cnn1C` [US8703768, 203], the IC50 was determined as 25 nM.

`CNC(=O)c1cc2[nH]c(-c3ccccc3)nc2cc1NC(=O)c1cc(C)n[nH]1` [Roche-Dataset for PDE10A, Compound 430] yielded an IC50 of 355 nM.

Turning to `Cc1c(Cl)cc(Cl)c2nc(CCc3nc(N4CCCC4)no3)nn12` [Roche-Dataset for PDE10A, Compound 521], half-maximal inhibition (IC50) was put at 17 nM.

`Cc1c(Cl)cc(C(F)(F)F)c2nc(CCc3nc(I)nn3C)nn12` [Roche-Dataset for PDE10A, Compound 615] had an IC50 of 123 nM.

In turn, `Cn1cc(-c2ccccc2)nc1CCc1nc2ccccc2c(=O)[nH]1` [Roche-Dataset for PDE10A, Compound 170] gave an IC50 of 60 nM.

`Cc1cc(NC(=O)c2c(C(=O)N3CCC3)cnn2C)cc(Br)n1` [Roche-Dataset for PDE10A, Compound 1139] returned an IC50 of 4650 nM.

In the case of `Cn1cc(-c2ccccc2)nc1/C=C/c1ccc2ccccc2n1` [Roche-Dataset for PDE10A, Compound 180], the IC50 turned out to be 271 nM.

Molecule `O=C(Nc1ccn2nc(-c3ccccc3)nc2c1)c1cc(Cl)nc(N2CCCCC2)c1` [Roche-Dataset for PDE10A, Compound 86] yielded an IC50 of 52 nM.

`CC(C)(C)CCNC(=O)c1nc(C2CC2)cnc1Nc1cncnc1` [Roche-Dataset for PDE10A, Compound 1022] displayed an IC50 of 2340 nM.

The molecule `CC(C)c1ncc(Nc2ccon2)c(C(=O)N[C@@H]2CCN(c3ccc(Cl)cn3)C2)n1` [Roche-Dataset for PDE10A, Compound 212] returned an IC50 of 232 nM.

As to `CC(C)(C)OCCCNC(=O)c1nc(C2CC2)cnc1Nc1cncnc1` [Roche-Dataset for PDE10A, Compound 968], the IC50 is 295 nM.

`Cn1ncc(C(=O)N2CCC2)c1C(=O)Nc1ccn2nc(-c3cccnc3)nc2c1` [Roche-Dataset for PDE10A, Compound 281] came in with an IC50 of 1.16 nM.

The molecule `CCN(C)c1cnc(Nc2cncnc2)c(C(=O)Nc2cnn(C)c2C(=O)NC)n1` [US8703768, 311] displayed an IC50 of 19 nM.

The molecule `O=C(Nc1ccncc1C(F)(F)F)c1ccc2cc(-c3ccccc3)nn2c1` [Roche-Dataset for PDE10A, Compound 367] showed an IC50 of 1070 nM.

`Cc1nc2ccccc2nc1CCc1ncc(-c2ccccc2)[nH]1` [Roche-Dataset for PDE10A, Compound 254]: half-maximal inhibition (IC50) was put at 9.25 nM.

The molecule `C/C(=C\c1nc2c(C)ncc(C)n2n1)c1nc(Br)nn1C` [Roche-Dataset for PDE10A, Compound 1125] returned an IC50 of 4820 nM.

`Cn1ncc(C(=O)N2CCC2)c1C(=O)Nc1ccn(C2CCCCC2)n1` [Roche-Dataset for PDE10A, Compound 1064] came in with an IC50 of 242 nM.

The molecule `CCc1nc(C)c(C(=O)Nc2cc3nc(-c4ccccc4)[nH]c3cc2C(=O)NCC2(CO)COC2)o1` [Roche-Dataset for PDE10A, Compound 163] had an IC50 of 7.27 nM.

The molecule `Cc1c(Cl)cc(OCC(=O)N2CCOCC2)c2nc(CCc3nc(N4CCCC4)nn3C)nn12` [Roche-Dataset for PDE10A, Compound 23] gave an IC50 of 2.07 nM.

`Cc1ncc(C)n2nc(CCc3nc(N4CCC[C@@H]4C)nn3C)nc12` [Roche-Dataset for PDE10A, Compound 269]: inhibition was half-maximal at 4.54 nM (IC50).

As to `O=C1c2ccccc2C(=O)N1CCc1nc(-c2ccccc2)cs1` [Roche-Dataset for PDE10A, Compound 150], inhibition was half-maximal at 342 nM (IC50).

In the case of `COc1ccccc1-c1cn2c(n1)C[C@H](NC(=O)c1c(C(=O)N(C)C3CC3)cnn1C)CC2` [Roche-Dataset for PDE10A, Compound 278], the IC50 came to 13 nM.

In turn, `Cc1c(C(F)(F)F)nc2ccc(OCc3nc(-c4ccccc4)cn3C)nn12` [US10399985, Example 36] registered an IC50 of 34 nM.

As for `O=C(NCCC1CCCCC1)c1nc(C2CC2)cnc1Nc1cncnc1` [Roche-Dataset for PDE10A, Compound 901], the IC50 came out at 1410 nM.

In turn, `CNC(=O)c1c(NC(=O)c2nc(OC)cnc2Nc2cncnc2)cnn1C` [US8703768, 258] gave an IC50 of 141 nM.

Molecule `Cn1ncc(C(=O)N2CCC2)c1C(=O)Nc1cn(-c2cccc(C(F)(F)F)n2)cn1` [Roche-Dataset for PDE10A, Compound 802] displayed an IC50 of 3190 nM.

In the case of `O=C(Nc1ccn2nc(-c3ccccc3)nc2c1)c1cncc(Cl)c1` [Roche-Dataset for PDE10A, Compound 385], the IC50 worked out at 71 nM.

Turning to `Cc1nc2cc(Cl)ccc2nc1OCc1nc(-c2ccccc2)cn1C` [Roche-Dataset for PDE10A, Compound 587], the IC50 amounted to 4.05 nM.

`Cc1cc(NC(=O)c2c(C(=O)N3CCC3)cnn2C)n[nH]1` [Roche-Dataset for PDE10A, Compound 1149] showed an IC50 of 2680 nM.

Molecule `Cn1nc(C2CCCC2)cc1NC(=O)c1nc(C2CC2)ccc1Nc1cncnc1` [Roche-Dataset for PDE10A, Compound 677] came in with a concentration for half-maximal inhibition (IC50) of 439 nM.

For `COCCn1ccc(NC(=O)c2nc(Cl)ccc2Nc2cncnc2)n1` [Roche-Dataset for PDE10A, Compound 864], inhibition was half-maximal at 117 nM (IC50).

Consider `CCc1nc(C)c(C(=O)Nc2cc3nc(-c4ccccc4)[nH]c3cc2C(=O)O)o1` [Roche-Dataset for PDE10A, Compound 424], for which the IC50 turned out to be 1340 nM.

With `CCOC(=O)c1cnn(C)c1C(=O)Nc1ccn2nc(-c3cccnc3F)nc2c1` [Roche-Dataset for PDE10A, Compound 264], 183 nM corresponded to half-maximal inhibition (IC50).

In turn, `CNC(=O)c1cc2[nH]c(-c3ccccc3)nc2cc1NC(=O)c1oc(CO)nc1C` [Roche-Dataset for PDE10A, Compound 238] had an IC50 of 748 nM.

The molecule `O=C(Nc1sccc1C(=O)N1CCOCC1)c1nc(C2CC2)ccc1Nc1cncnc1` [US8703768, 90] yielded an IC50 of 0.44 nM.

For `O=C(Nc1ccnn1-c1ccccc1)c1nc(C2CC2)ccc1Nc1cncnc1` [Roche-Dataset for PDE10A, Compound 507], the IC50 stood at 0.87 nM.

Molecule `CN(C)C(=O)c1cnn(C)c1C(=O)Nc1ccn2nc(-c3ccnc(S(C)(=O)=O)c3)nc2c1` [Roche-Dataset for PDE10A, Compound 421] came in with an IC50 of 8.81 nM.

Take `CCN(C)C(=O)c1cnn(C)c1C(=O)N[C@@H]1CCn2cc(-c3ccccc3)nc2C1` [Roche-Dataset for PDE10A, Compound 242]: half-maximal inhibition (IC50) required 15 nM.

`CCOc1ccccc1-c1cn2c(n1)C[C@H](NC(=O)c1c(C(=O)N3CCC3)cnn1C)CC2` [Roche-Dataset for PDE10A, Compound 251] came in with an IC50 of 2.2 nM.

The molecule `O=C(Nc1ccn(C2CCC2)n1)c1nc(C2CC2)ccc1Nc1cncnc1` [Roche-Dataset for PDE10A, Compound 695] yielded an IC50 of 21 nM.

Molecule `Cc1ccc(Nc2cncc(O)n2)c(C(=O)Nc2ccn(C)n2)n1` [Roche-Dataset for PDE10A, Compound 940] yielded an IC50 of 8140 nM.

Regarding `O=C(Nc1ccccc1C(=O)C1CCCCC1)c1nc(C2CC2)cnc1Nc1cncnc1` [Roche-Dataset for PDE10A, Compound 667], the IC50 came to 13 nM.

`CCOC(=O)c1cnn(C)c1C(=O)Nc1cn(-c2ccccn2)cn1` [Roche-Dataset for PDE10A, Compound 960]: inhibition was half-maximal at 2670 nM (IC50).

Turning to `O=C(Nc1cnn(Cc2ccccc2)c1)c1nc(C2CC2)ccc1Nc1cncnc1` [Roche-Dataset for PDE10A, Compound 614], the IC50 is 69 nM.

Molecule `O=C(Nc1cc(-c2ccccn2)nn1CCO)c1nc(C2CC2)ccc1Nc1cncnc1` [US8470820, 10] gave a half-inhibitory concentration (IC50) of 2.25 nM.

As to `Cc1cc(NC(=O)c2ccc3cc(-c4ccccc4)nn3c2)ccn1` [Roche-Dataset for PDE10A, Compound 384], the IC50 was 35 nM.

In turn, `Cn1ncc(C(=O)N2CCC2)c1C(=O)Nc1ccn(C(C)(C)C)n1` [Roche-Dataset for PDE10A, Compound 1109] gave an IC50 of 672 nM.

In turn, `Cc1cc(Cl)c(C)n2nc(/C=C/c3nc(N4CCCC4)nn3C)nc12` [Roche-Dataset for PDE10A, Compound 300] had an IC50 of 0.33 nM.

In turn, `Cc1ncc(C)n2nc(CCc3nc(C4CCCC4)nn3C)nc12` [Roche-Dataset for PDE10A, Compound 956] had an IC50 of 146 nM.

Turning to `O=C(Nc1ccn(CCC(F)(F)F)n1)c1nc(C2CC2)ccc1Nc1cncnc1` [Roche-Dataset for PDE10A, Compound 498], it took 9.67 nM to reach half-maximal inhibition (IC50).
